Values of other authors, collected in patent publication EP1923060A1, “Combinations of a sphingolipid and an HMG-CoA reductase inhibitor for treating hypercholesterolemia” (Nederlandse Organisatie voor …, priority 2006, dated 2008).

Columns and labels:
[1] = tested on: galactosamine-injured primary rat hepatocytes; conditions: Kim et al., Phytotherapy Res. (2000) 14:448-451
[2] = in humans
C57bI mice = conditions: intraperitoneal injection; US 2004/0171557

For `CCCCCCCCC/C=C\CC/C=C/[C@@H](O)[C@H](CO[C@@H]1O[C@H](CO)[C@@H](O)[C@H](O)[C@H]1O)NC(=O)CCCCCCCCCCCCCCC` [LCC, 1-O-(β-D-glucopyranosyl)-(2S,3R,4E,8Z)-2-N-palmityloctadecasphinga-4,8-diene], the “release into the culture medium of GPT and SDH” value [1] is given as “reduce the release”.

For `CCCCCCCCCCCCCC[C@@H](O)[C@@H](O)[C@@H](N)CO` [phytosphingosine], the “plasma (VLDL and LDL) cholesterol and triglyceride levels” value [2] is listed as “demonstrated decisively”.

In the case of glucocerebroside, the liver fat content (C57bI mice) is listed as “may be reduced”.
